{
  "source": "paper PMC9046087",
  "about": "“Structural basis of tethered agonism of the adhesion GPCRs ADGRD1 and ADGRF1” (Nature, 2022)",
  "test_in_all_cases": "BRET assay using TRUPATH biosensors, Gi activation of ADGRF1",
  "assay_type_in_all_cases": "cell-based",
  "key": {"ADGRF1 [1]": {"target": "T1, ADGRF1 (Homo sapiens, UniProt Q5T601)", "T1 construct": "Flag (N); expressed in transfected cells; host or cells: HEK293F", "T1 sequence (Q5T601 20-910)": "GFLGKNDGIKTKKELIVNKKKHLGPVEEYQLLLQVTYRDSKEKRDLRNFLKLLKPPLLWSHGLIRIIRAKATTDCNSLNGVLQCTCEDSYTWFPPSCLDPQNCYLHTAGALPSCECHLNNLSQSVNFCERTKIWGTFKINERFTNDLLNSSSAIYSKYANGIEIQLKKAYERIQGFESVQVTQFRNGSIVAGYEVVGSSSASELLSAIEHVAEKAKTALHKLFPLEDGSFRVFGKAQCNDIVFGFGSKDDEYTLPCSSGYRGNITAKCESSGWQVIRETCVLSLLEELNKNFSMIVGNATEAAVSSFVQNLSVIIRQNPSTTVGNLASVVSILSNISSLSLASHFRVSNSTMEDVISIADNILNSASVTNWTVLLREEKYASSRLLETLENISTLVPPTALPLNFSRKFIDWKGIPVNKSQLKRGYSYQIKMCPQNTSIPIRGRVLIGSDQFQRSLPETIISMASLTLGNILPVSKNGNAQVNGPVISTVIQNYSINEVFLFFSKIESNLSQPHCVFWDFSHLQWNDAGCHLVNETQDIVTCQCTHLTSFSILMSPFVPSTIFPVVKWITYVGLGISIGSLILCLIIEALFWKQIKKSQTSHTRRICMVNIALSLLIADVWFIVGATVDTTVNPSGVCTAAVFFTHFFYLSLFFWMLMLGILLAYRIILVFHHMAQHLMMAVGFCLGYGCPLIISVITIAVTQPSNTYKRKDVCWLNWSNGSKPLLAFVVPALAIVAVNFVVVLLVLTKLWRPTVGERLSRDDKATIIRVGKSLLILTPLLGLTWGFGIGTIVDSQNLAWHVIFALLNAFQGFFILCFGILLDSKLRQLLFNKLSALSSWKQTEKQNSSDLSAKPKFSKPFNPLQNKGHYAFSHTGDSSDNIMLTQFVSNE", "how_it_was_run": "(§1)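 HEK293F cells transiently co-transfected with wild-type or mutant receptor, Gα-RLuc8 (GαsS for Gs, Gαi1 for Gi), Gβ3 and Gγ9-GFP2 at 2:1:1:1. After 30 min at 37 °C and coelenterazine 400a, cells stimulated with synthetic stalk peptide. BRET = GFP2/RLuc8 emission, last of five readings.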"}, "ADGRF1 [2]": {"target": "T2, ADGRF1 (Homo sapiens, UniProt Q5T601, A683G)", "T2 construct": "Flag (N); expressed in transfected cells; host or cells: HEK293F", "T2 sequence (Q5T601 20-910 A683G)": "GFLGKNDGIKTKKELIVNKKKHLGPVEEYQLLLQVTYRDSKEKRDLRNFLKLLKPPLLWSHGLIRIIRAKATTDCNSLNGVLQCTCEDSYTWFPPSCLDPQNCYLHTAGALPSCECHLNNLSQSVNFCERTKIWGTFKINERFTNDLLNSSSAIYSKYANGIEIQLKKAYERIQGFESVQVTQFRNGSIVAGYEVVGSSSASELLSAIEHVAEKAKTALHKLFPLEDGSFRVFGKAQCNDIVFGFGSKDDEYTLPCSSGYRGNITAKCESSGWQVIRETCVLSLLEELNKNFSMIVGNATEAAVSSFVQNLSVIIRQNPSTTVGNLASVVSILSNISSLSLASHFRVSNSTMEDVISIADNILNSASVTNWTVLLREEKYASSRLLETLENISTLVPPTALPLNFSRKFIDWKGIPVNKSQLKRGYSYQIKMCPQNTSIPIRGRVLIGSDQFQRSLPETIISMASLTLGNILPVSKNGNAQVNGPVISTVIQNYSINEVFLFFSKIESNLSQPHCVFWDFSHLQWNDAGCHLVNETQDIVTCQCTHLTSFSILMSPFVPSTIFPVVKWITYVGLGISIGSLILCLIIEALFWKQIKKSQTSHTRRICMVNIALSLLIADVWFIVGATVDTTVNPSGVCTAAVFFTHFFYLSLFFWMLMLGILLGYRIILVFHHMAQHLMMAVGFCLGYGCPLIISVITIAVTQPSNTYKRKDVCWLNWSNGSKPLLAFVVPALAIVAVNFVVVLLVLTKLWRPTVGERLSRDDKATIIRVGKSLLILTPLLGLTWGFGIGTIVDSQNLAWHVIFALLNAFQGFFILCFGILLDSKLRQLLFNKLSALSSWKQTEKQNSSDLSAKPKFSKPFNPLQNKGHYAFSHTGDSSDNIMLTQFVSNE", "settings": "ADGRF1 A683^3.55bG", "how_it_was_run": "as §1"}, "ADGRF1 [3]": {"target": "T3, ADGRF1 (Homo sapiens, UniProt Q5T601, N827A)", "T3 construct": "Flag (N); expressed in transfected cells; host or cells: HEK293F", "T3 sequence (Q5T601 20-910 N827A)": "as the sequence (Q5T601 20-910 A683G) above, with G664A, N808A counted along it", "settings": "ADGRF1 N827^7.46bA", "how_it_was_run": "as §1"}, "ADGRF1 [4]": {"target": "T4, ADGRF1 (Homo sapiens, UniProt Q5T601, L593A)", "T4 construct": "Flag (N); expressed in transfected cells; host or cells: HEK293F", "T4 sequence (Q5T601 20-910 L593A)": "as the sequence (Q5T601 20-910 A683G) above, with L574A, G664A counted along it", "settings": "ADGRF1 L593^1.47bA", "how_it_was_run": "as §1"}, "ADGRF1 [5]": {"target": "T5, ADGRF1 (Homo sapiens, UniProt Q5T601, R623A)", "T5 construct": "Flag (N); expressed in transfected cells; host or cells: HEK293F", "T5 sequence (Q5T601 20-910 R623A)": "T1 sequence (Q5T601 20-910) with R604A", "settings": "ADGRF1 R623^2.46bA", "how_it_was_run": "as §1"}, "ADGRF1 [6]": {"target": "T6, ADGRF1 (Homo sapiens, UniProt Q5T601, H820A)", "T6 construct": "Flag (N); expressed in transfected cells; host or cells: HEK293F", "T6 sequence (Q5T601 20-910 H820A)": "as the sequence (Q5T601 20-910 A683G) above, with G664A, H801A counted along it", "settings": "ADGRF1 H820^7.39bA", "how_it_was_run": "as §1"}, "[7]": {"settings": "n = 3, read-out: pEC50 (mean ± s.e.m.) (converted)"}},
  "note": "Where a chain is given by its changes, count along the chain named. Read-outs that look alike come from different tables or passages of the source. Ends that are not written are not given here.",
  "data": [
    {"sequence": "TSFSILMSPFVP [pF1]", "values": [
      {"measurement": "Emax (mean ± s.e.m.)", "setting": "ADGRF1 [1]; ADGRF1 Construct 1 (structure construct), n = 4", "value": "90 ± 13 % of WT"},
      {"measurement": "EC50", "setting": "ADGRF1 [1]; ADGRF1 Construct 1 (structure construct), n = 4, read-out: pEC50 (mean ± s.e.m.) (converted)", "value": 100, "unit": "nM"},
      {"measurement": "Emax (mean ± s.e.m.)", "setting": "ADGRF1 [1]; ADGRF1 WT, n = 30", "value": "100 ± 3 % of WT"},
      {"measurement": "EC50", "setting": "ADGRF1 [1]; ADGRF1 WT, n = 30, read-out: pEC50 (mean ± s.e.m.) (converted)", "value": 61.7, "unit": "nM"},
      {"measurement": "Emax (mean ± s.e.m.)", "setting": "ADGRF1 [2]; n = 3", "value": "111 ± 13 % of WT"},
      {"measurement": "EC50", "setting": "ADGRF1 [2]; [7]", "value": 339, "unit": "nM"},
      {"measurement": "Emax (mean ± s.e.m.)", "setting": "ADGRF1 [3]; n = 3", "value": "122 ± 13 % of WT"},
      {"measurement": "EC50", "setting": "ADGRF1 [3]; [7]", "value": 389, "unit": "nM"},
      {"measurement": "Emax (mean ± s.e.m.)", "setting": "ADGRF1 [4]; n = 3", "value": "106 ± 11 % of WT"},
      {"measurement": "EC50", "setting": "ADGRF1 [4]; [7]", "value": 562, "unit": "nM"},
      {"measurement": "Emax (mean ± s.e.m.)", "setting": "ADGRF1 [5]; n = 3", "value": "120 ± 8 % of WT"},
      {"measurement": "EC50", "setting": "ADGRF1 [5]; [7]", "value": 447, "unit": "nM"},
      {"measurement": "Emax (mean ± s.e.m.)", "setting": "ADGRF1 [6]; n = 3", "value": "126 ± 12 % of WT"},
      {"measurement": "EC50", "setting": "ADGRF1 [6]; [7]", "value": 275, "unit": "nM"}
    ]}
  ]
}
